ChEMBL document CHEMBL1201862, “PubChem BioAssay data set” (2004)
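Briefly, cells in 96-well plates were exposed to five compound concentrations for 48 h, and endpoints were estimated by linear interpolation. GI50 is the concentration that inhibits growth by half.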 Calls of active or inactive are those of the source. Cut-off read from the data, not from the text of the source: active = GI50 up to about 1.1 µM and inactive = higher. Numbered stars: 1 amine (or outer) side, 2 acyl side, 3 side chain; on linkers, the order of the positions; unused ones are H or OH. Bridge positions count the residues as written; N and C are the ends. Square brackets hold non-standard residues; d marks the D form. Peptide text beside a SMILES is read from it. X58 = COc1c(N[*:1])cccc1C(=O)O[C@H](C(=O)[C@H](C)C(=O)[*:2])C(C)C; X57 = CC(C)C[C@H](C(=O)[*:2])C(C)C(=O)C1CCCN1[*:1]; NMeY = CN[C@@H](Cc1ccc(O)cc1)C(=O)O; Lac = C[C@H](O)C(=O)O

Legend:
Test in all cases: NCI-60 cell line screen, 48 h
U-251 = test system: U-251
HCT-116 = test system: HCT-116
MOLT-4 = test system: MOLT-4
HT-29 = test system: HT-29
SF-295 = test system: SF-295
HL-60 = test system: HL-60
MDA-MB-435 = test system: MDA-MB-435
NCI/ADR-RES = test system: NCI/ADR-RES
IGROV-1 = test system: IGROV-1
TK-10 = test system: TK-10
M14 = test system: M14
OVCAR-5 = test system: OVCAR-5
SN12C = test system: SN12C
T47D = test system: T47D
SR = test system: SR
MDA-MB-231 = test system: MDA-MB-231
EKVX = test system: EKVX
NCI-H23 = test system: NCI-H23
CCRF-CEM = test system: CCRF-CEM
HCC 2998 = test system: HCC 2998

Row | Structure (SMILES) | GI50 (U-251) | GI50 (HCT-116) | GI50 (MOLT-4) | GI50 (HT-29) | GI50 (SF-295) | GI50 (HL-60) | GI50 (MDA-MB-435) | GI50 (NCI/ADR-RES) | GI50 (IGROV-1) | GI50 (TK-10) | GI50 (M14) | GI50 (OVCAR-5) | GI50 (SN12C) | GI50 (T47D) | GI50 (SR) | GI50 (MDA-MB-231) | GI50 (EKVX) | GI50 (NCI-H23) | GI50 (CCRF-CEM) | GI50 (HCC 2998)
1 | O=C(O)CN1C(=O)CN=C(c2ccccn2)c2cc(Cl)ccc21 | > 100 µM (inactive) | > 100 µM (inactive) | 1.24 µM (inactive) | > 100 µM (inactive) | > 100 µM (inactive) | 4.31 µM (inactive) | > 100 µM (inactive) | > 100 µM (inactive) | > 100 µM (inactive) | > 100 µM (inactive) | > 100 µM (inactive) | > 100 µM (inactive) | > 100 µM (inactive) | > 100 µM (inactive) | 0.547 µM (active) | > 100 µM (inactive) | > 100 µM (inactive) |  |  | 
2 | OC(c1ccccc1)(c1ccccc1)c1nccc2ccccc12 | 29.3 µM (inactive) | 27.9 µM (inactive) | 16.7 µM (inactive) | 26.8 µM (inactive) | 15.8 µM (inactive) | 32.3 µM (inactive) | 30.8 µM (inactive) | 34.6 µM (inactive) | 40 µM (inactive) | 12.9 µM (inactive) | 20.8 µM (inactive) | 31.7 µM (inactive) | 44.5 µM (inactive) | 27.3 µM (inactive) | 37.8 µM (inactive) | 37.7 µM (inactive) | 20.7 µM (inactive) | 20.8 µM (inactive) | 23.6 µM (inactive) | 
3 | CC(C)(C)OC/C=C1\C(=O)O[C@H]2C[C@@H](O[Si](C)(C)C(C)(C)C)C[C@@H]12 | 83 µM (inactive) | 26.4 µM (inactive) | 25.1 µM (inactive) | 73.6 µM (inactive) | 48.6 µM (inactive) |  | 96.2 µM (inactive) | 88.1 µM (inactive) | > 100 µM (inactive) | > 100 µM (inactive) | 61.8 µM (inactive) | > 100 µM (inactive) | > 100 µM (inactive) | 27.9 µM (inactive) | 37.3 µM (inactive) | > 100 µM (inactive) | > 100 µM (inactive) | 52.4 µM (inactive) | 33.9 µM (inactive) | > 100 µM (inactive)
4 | O=C(O)/C=C(/C(=O)O)C12CCN3CC4=CCOC5CC(=O)NC1C5C4CC32 (centres undefined) | > 100 µM (inactive) | > 100 µM (inactive) | > 100 µM (inactive) | > 100 µM (inactive) | > 100 µM (inactive) | > 100 µM (inactive) | > 100 µM (inactive) | > 100 µM (inactive) | > 100 µM (inactive) | > 100 µM (inactive) | > 100 µM (inactive) | > 100 µM (inactive) | > 100 µM (inactive) | > 100 µM (inactive) | > 100 µM (inactive) | > 100 µM (inactive) | > 100 µM (inactive) | > 100 µM (inactive) | > 100 µM (inactive) | 
5 | COc1ccc(Nc2ccc3ccccc3c2-c2c(O)ccc3ccccc23)cc1 | 22.6 µM (inactive) | 17.5 µM (inactive) | 10.1 µM (inactive) | 16.1 µM (inactive) | 18.4 µM (inactive) | 31.1 µM (inactive) | 3.99 µM (inactive) | 15.4 µM (inactive) | 11 µM (inactive) | 27.7 µM (inactive) |  | 16.9 µM (inactive) | 15.5 µM (inactive) | 15.6 µM (inactive) | 4.93 µM (inactive) | 24.7 µM (inactive) | 14.9 µM (inactive) | 15.2 µM (inactive) | 18.3 µM (inactive) | 15.7 µM (inactive)
6 | O=[N+]([O-])c1ccc(N2N=C(c3ccc4ccccc4c3O)CC2c2ccc(Cl)cc2)c([N+](=O)[O-])c1 (centres undefined) | 25.9 µM (inactive) | 28 µM (inactive) | 17 µM (inactive) | 33 µM (inactive) | 34.7 µM (inactive) |  | 16.9 µM (inactive) | 30.6 µM (inactive) | 21.5 µM (inactive) | 53.1 µM (inactive) | 50.4 µM (inactive) | > 100 µM (inactive) | 33.2 µM (inactive) | 51.4 µM (inactive) | 18.2 µM (inactive) | 20.5 µM (inactive) |  | > 100 µM (inactive) | 14.2 µM (inactive) | 46.5 µM (inactive)
7 | N#Cc1c(N)c2c(c(-c3ccccc3)c1-c1ccccc1)C(=O)N(NC(=O)c1ccccc1)C2=O | > 100 µM (inactive) | 19.6 µM (inactive) | 40.6 µM (inactive) |  | > 100 µM (inactive) | 58.2 µM (inactive) | 74.3 µM (inactive) | 89.5 µM (inactive) | 61.4 µM (inactive) | > 100 µM (inactive) | > 100 µM (inactive) | > 100 µM (inactive) | > 100 µM (inactive) | 32.1 µM (inactive) | 44.5 µM (inactive) | > 100 µM (inactive) | > 100 µM (inactive) |  | 42.3 µM (inactive) | > 100 µM (inactive)
8 | COC(=O)/C=C/c1ccc2c(c1)CC1(C2)Cc2cc3c(cc2C1=O)CCC3 (centres undefined) | 26.5 µM (inactive) | 15.7 µM (inactive) | > 100 µM (inactive) |  | 34.1 µM (inactive) | 7.98 µM (inactive) | > 100 µM (inactive) | 42.5 µM (inactive) | 24.3 µM (inactive) | 57.3 µM (inactive) | 47 µM (inactive) |  | > 100 µM (inactive) | 11.1 µM (inactive) | 44.1 µM (inactive) | 39 µM (inactive) | 55.6 µM (inactive) |  | > 100 µM (inactive) | > 100 µM (inactive)
9 | Cc1ccc(S(=O)(=O)N2CCN3C(=O)c4ccccc4C32c2ccc(F)cc2)cc1 (centres undefined) | > 100 µM (inactive) | 42.1 µM (inactive) | 23.8 µM (inactive) | 40.6 µM (inactive) | 85.7 µM (inactive) |  | 32.8 µM (inactive) | 52 µM (inactive) | 22.9 µM (inactive) | > 100 µM (inactive) | > 100 µM (inactive) | > 100 µM (inactive) | 32.7 µM (inactive) | 56.6 µM (inactive) | 16.9 µM (inactive) | > 100 µM (inactive) | 67.8 µM (inactive) | 97.7 µM (inactive) | 35.1 µM (inactive) | > 100 µM (inactive)
10 | Cn1c(-c2cccs2)cc(-c2cccs2)c1-c1ccsc1 | > 100 µM (inactive) | 23.3 µM (inactive) | > 100 µM (inactive) | > 100 µM (inactive) | > 100 µM (inactive) | > 100 µM (inactive) | > 100 µM (inactive) | > 100 µM (inactive) |  | > 100 µM (inactive) | > 100 µM (inactive) | > 100 µM (inactive) | > 100 µM (inactive) | > 100 µM (inactive) | 48.2 µM (inactive) | > 100 µM (inactive) | > 100 µM (inactive) | > 100 µM (inactive) | > 100 µM (inactive) | > 100 µM (inactive)
11 | CCOC(=O)c1nc2ccccc2nc1NCc1ccc(OC)c(OC)c1 | > 100 µM (inactive) | > 100 µM (inactive) | > 100 µM (inactive) | > 100 µM (inactive) | > 100 µM (inactive) | > 100 µM (inactive) | > 100 µM (inactive) | > 100 µM (inactive) | > 100 µM (inactive) | 82.4 µM (inactive) |  | > 100 µM (inactive) | > 100 µM (inactive) | > 100 µM (inactive) | > 100 µM (inactive) | > 100 µM (inactive) | > 100 µM (inactive) | > 100 µM (inactive) | > 100 µM (inactive) | > 100 µM (inactive)
12 | CCCCCCCCCCCCCCCCOP(=O)(O)OP(=O)(O)OCC1OC(n2cnc3c(N)ncnc32)C(O)C1O (centres undefined) | 46 µM (inactive) | 45.5 µM (inactive) | 23.5 µM (inactive) | 39.9 µM (inactive) |  | 66.7 µM (inactive) | 56.5 µM (inactive) | 78.9 µM (inactive) | 66.8 µM (inactive) | > 100 µM (inactive) | 64.9 µM (inactive) | 11.5 µM (inactive) | 36.3 µM (inactive) | > 100 µM (inactive) | 31.8 µM (inactive) | > 100 µM (inactive) | > 100 µM (inactive) | 87.1 µM (inactive) | 30.5 µM (inactive) | 52.1 µM (inactive)
13 | Cc1c2cccc-2c(N(C)C)cc2c1[nH]c1ccccc12 | 1.93 µM (inactive) | 3.33 µM (inactive) | 4.35 µM (inactive) | 4.81 µM (inactive) | 10.4 µM (inactive) | 2.35 µM (inactive) | 8.36 µM (inactive) | 3.22 µM (inactive) | 1.89 µM (inactive) | 4.63 µM (inactive) | 5.32 µM (inactive) | 3.23 µM (inactive) | 6.67 µM (inactive) | 1.86 µM (inactive) | 1.58 µM (inactive) | 10.1 µM (inactive) | 1.96 µM (inactive) | 8.93 µM (inactive) | 3.83 µM (inactive) | 
14 | COc1ccc(C[C@H]2C(=O)O[C@H](C)[C@H](NC(=O)[C@@H](CC(C)C)C(C)C(=O)C3CCCN3C(=O)[C@H](C)O)C(=O)Nc3cccc(c3OC)C(=O)O[C@@H](C(C)C)C(=O)[C@H](C)C(=O)N[C@@H](CC(C)C)C(=O)N3CCC[C@H]3C(=O)N2C)cc1 (some centres undefined) (H-[Lac][X57]T[X58]LP[NMeY](Me); ester 3-C) | > 12.5 µM (inactive) | 6.12 µM (inactive) | 1.91 µM (inactive) | 2.79 µM (inactive) | > 12.5 µM (inactive) |  | 4.93 µM (inactive) | > 12.5 µM (inactive) | > 12.5 µM (inactive) | > 12.5 µM (inactive) | 11.4 µM (inactive) | > 12.5 µM (inactive) | > 12.5 µM (inactive) | > 12.5 µM (inactive) | 5.09 µM (inactive) | > 12.5 µM (inactive) | > 12.5 µM (inactive) | > 12.5 µM (inactive) |  | 3.82 µM (inactive)
